“And” between values parts separate entries of the source, which are not always exact repeats. Identical values can stand only once.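 Abbreviation: GI50, concentration required for 50% inhibition of growth. TGI: concentration producing complete growth inhibition.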
Assays:
Assay in all cases: inhibition of tumour cell growth, NCI panel, 384-well format
[1] = system: M14 melanoma
[2] = system: UACC-257 melanoma
[3] = system: MOLT-4 leukemia
[4] = system: SK-MEL-5 melanoma
[5] = system: NCI/ADR-RES ovarian
[6] = system: T-47D breast
[7] = system: COLO 205 colon
[8] = system: IGROV1 ovarian
[9] = system: HOP-62 NSCLC
[10] = system: OVCAR-4 ovarian
[11] = system: CCRF-CEM leukemia
[12] = system: HOP-92 NSCLC
[13] = system: NCI-H460 NSCLC
[14] = system: EKVX NSCLC
[15] = system: RPMI-8226 leukemia
[16] = system: PC-3 prostate
[17] = system: MCF7 breast
[18] = system: HCT-15 colon
[19] = system: HT29 colon
[20] = system: LOX IMVI melanoma
[21] = system: OVCAR-5 ovarian
[22] = system: SK-MEL-2 melanoma
[23] = system: NCI-H226 lung
[24] = system: MDA-MB-435 melanoma
[25] = system: HCC-2998 colon
[26] = system: SW-620 colon
[27] = system: KM12 colon
[28] = system: SNB-19 CNS
[29] = system: DU-145 prostate
[30] = system: SF-539 CNS

With `CC1Cc2ccccc2N1C(=O)Cc1nc(N2CCOCC2)cc(=O)[nH]1` (centres undefined) the TGI [1] was > 100 µM, the GI50 [2] was 47.9 µM and > 100 µM and the TGI [2] was > 100 µM. The GI50 [3] was 4.69 µM and 15 µM, the TGI [3] was 20.4 µM and 41 µM and the GI50 [4] was 20.2 µM and 33.2 µM. The TGI [4] was > 100 µM, the GI50 [5] was > 100 µM and the TGI [5] was > 100 µM. For the same compound, the GI50 [6] was 3.31 µM and 11.2 µM, the TGI [6] was 65 µM and 75.2 µM and the GI50 [7] was 53.8 µM and > 100 µM. For the same compound, the TGI [7] was > 100 µM, the GI50 [8] was 1.72 µM and 7.93 µM and the TGI [8] was 7.96 µM and 32.8 µM. For the same compound, the GI50 [9] was 20.6 µM and 33.5 µM, the TGI [9] was > 100 µM and the GI50 [10] was > 100 µM and 74.9 µM. The TGI [10] was > 100 µM, the GI50 [11] was 23.1 µM and 61.7 µM and the TGI [11] was > 100 µM. The GI50 [12] was 8.04 µM and 25.3 µM, the TGI [12] was > 100 µM and the GI50 [13] was 8.38 µM and 29.9 µM. For the same compound, the TGI [13] was > 100 µM, the GI50 [14] was 5.5 µM and 15.9 µM and the TGI [14] was 38.9 µM and 98.9 µM. The GI50 [15] was 11.8 µM and 36.3 µM, the TGI [15] was 24.9 µM and > 100 µM and the GI50 [16] was 1.86 µM and 4.92 µM. For the same compound, the TGI [16] was > 100 µM, the GI50 [17] was 3.23 µM and 14.9 µM and the TGI [17] was > 100 µM. For the same compound, the GI50 [18] was 24.1 µM and 37.9 µM, the TGI [18] was > 100 µM and the GI50 [19] was 9.87 µM and 49.4 µM. The TGI [19] was 29.7 µM and > 100 µM, the GI50 [20] was 14.5 µM and 50.9 µM and the TGI [20] was 42.4 µM and > 100 µM. For the same compound, the GI50 [21] was 18.9 µM and 58.3 µM, the TGI [21] was > 100 µM and the GI50 [22] was 63.2 µM and > 100 µM. For the same compound, the TGI [22] was > 100 µM, the GI50 [23] was 63.2 µM and 65.3 µM and the TGI [23] was > 100 µM. The GI50 [24] was > 100 µM and 85.3 µM, the TGI [24] was > 100 µM and the GI50 [25] was 4.86 µM and 33 µM. For the same compound, the TGI [25] was 75.2 µM and > 100 µM, the GI50 [26] was 64.3 µM and > 100 µM and the TGI [26] was > 100 µM. For the same compound, the GI50 [27] was 13.5 µM and 72 µM, the TGI [27] was 34.4 µM and > 100 µM and the GI50 [28] was > 100 µM. For the same compound, the TGI [28] was > 100 µM, the GI50 [29] was 14.2 µM and 34.2 µM and the TGI [29] was > 100 µM. For the same compound, the GI50 [30] was 22.4 µM and 59.7 µM and the TGI [30] was > 100 µM.

Reference: PubChem BioAssay (NCI)
